For the test, the target named is T1, small-conductance Ca2+-activated K+ channels (SK channels, subtype 2) (Homo sapiens, UniProt Q9H2S1).
T1 construct: expressed in transfected cells; host or cells: HEK293
The test is described as follows: whole-cell patch-clamp of ionic current through SK2 channels in HEK293 cells (SC100). The class given is cell-based. To be noted: whole-cell patch-clamp, HEK293 cells expressing SK2 channels; concentration that increases the basal current by 100%. In short, it runs like this: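 SC100, the concentration doubling basal current (a 100% increase), was taken from SK2 currents recorded by whole-cell patch-clamp in SK2-expressing HEK293 cells.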
As to `Cc1nc(NC2CCC(F)(F)CC2)nc(-n2nc(C)c(Br)c2C)c1Br` [NSSy6736, 5-bromo-4-(4-bromo-3,5-dimethyl-1H-pyrazol-1-yl)-N-(4,4-difluorocyclohexyl)-6-methylpyrimidin-2-amine], the “SC100 (μM)” value is “+ (+ means >1 uM)”.

In the case of `COCc1cc(-n2ccc(C)n2)nc(NC2CCC(F)(F)CC2)n1` [NSSy6744, N-(4,4-difluorocyclohexyl)-4-(methoxymethyl)-6-(3-methyl-1H-pyrazol-1-yl)pyrimidin-2-amine], the “SC100 (μM)” value is reported as “++ (++ means 200 nM-1000 nM)”.

Turning to `Cc1csc(-c2cc(C(O)c3nnc(C)o3)cc(NC3CCC(F)(F)CC3)n2)n1` (centres unmarked) [NSSy6750, (2-((4,4-difluorocyclohexyl)amino)-6-(4-methylthiazol-2-yl)pyridin-4-yl)(5-methyl-1,3,4-oxadiazol-2-yl)methanol], the “SC100 (μM)” value is “++ (++ means 200 nM-1000 nM)”.

Take `Cc1ccn(-c2cc(CO)cc(Nc3ccc(F)cc3F)n2)n1` [NSSy6773]: the “SC100 (μM)” value is reported as “++ (++ means 200 nM-1000 nM)”.

For `Cc1csc(-c2cc(C(O)Cc3nnco3)cc(NC3CCC(F)(F)CC3)n2)n1` (centres unmarked) [NSSy6782, 1-(2-((4,4-difluorocyclohexyl)amino)-6-(4-methylthiazol-2-yl)pyridin-4-yl)-2-(1,3,4-oxadiazol-2-yl)ethan-1-ol], the “SC100 (μM)” value is “++ (++ means 200 nM-1000 nM)”.

In the case of `Cc1ccn(-c2cc(CN(C)C)nc(NC3CCC(F)(F)CC3)n2)n1` [NSSy6783, N-(4,4-difluorocyclohexyl)-4-((dimethylamino)methyl)-6-(3-methyl-1H-pyrazol-1-yl)pyrimidin-2-amine], the “SC100 (μM)” value is “++ (++ means 200 nM-1000 nM)”.

Regarding `Cc1ccn(-c2cc(CC#N)nc(NC3CCC(F)(F)CC3)n2)n1` [NSSy6800, 2-(2-((4,4-difluorocyclohexyl)amino)-6-(3-methyl-1H-pyrazol-1-yl)pyrimidin-4-yl)acetonitrile], the “SC100 (μM)” value is given as “++ (++ means 200 nM-1000 nM)”.

As for `Cc1ccn(-c2cc(CO)cc(N(C(N)=O)C3CCC(F)(F)CC3)n2)n1` [NSSy6812, 1-(4,4-difluorocyclohexyl)-1-(4-(hydroxymethyl)-6-(3-methyl-1H-pyrazol-1-yl)pyridin-2-yl) urea], the “SC100 (μM)” value is reported as “+ (+ means >1 uM)”.

On to `Cc1ccn(-c2cc(C(O)c3cnco3)cc(NC3CCC(F)(F)CC3)n2)n1` (centres unmarked) [NSSy6846], for which the “SC100 (μM)” value is listed as “+ (+ means >1 uM)”.

Consider `Cc1cn(CCOc2cc(NC3CCC(F)(F)CC3)nc(-n3ccc(C)n3)c2)nn1` [NSSy6849], for which the “SC100 (μM)” value was “++ (++ means 200 nM-1000 nM)”.

For the molecule `COc1cc(NC2CCC(F)(F)CC2)nc(-n2ccc(C3CC3)n2)n1` [NSSy6850], the “SC100 (μM)” value is “++ (++ means 200 nM-1000 nM)”.

For `COCc1cc(NC2CCC(F)(F)CC2)nc(-n2nc(C)cc2C)c1` [NSSy6861, N-(4,4-difluorocyclohexyl)-6-(3,5-dimethyl-1H-pyrazol-1-yl)-4-(methoxymethyl)pyridin-2-amine], the “SC100 (μM)” value is recorded as “++ (++ means 200 nM-1000 nM)”.

Consider `COCc1cc(NC2CCC(F)(F)CC2)nc(-n2ccc(C3CC3)n2)n1` [NSSy6880], for which the “SC100 (μM)” value is reported as “++ (++ means 200 nM-1000 nM)”.

With `CC(O)c1cc(NC2CCC(F)(F)CC2)nc(-n2ccc(C3CC3)n2)n1` (centres unmarked) [NSSy6881, 1-(2-(3-cyclopropyl-1H-pyrazol-1-yl)-6-((4,4-difluorocyclohexyl)amino)pyrimidin-4-yl) ethan-1-ol], the “SC100 (μM)” value is on record as “+ (+ means >1 uM)”.

Turning to `COC(=O)N1CCC(c2cc(NC3CCC(F)(F)CC3)nc(-n3ccc(C)n3)c2)CC1` [NSSy6885], the “SC100 (μM)” value is listed as “+++ (+++ means <200 nM)”.

In the case of `CC(=O)N1CCN(c2cc(-n3ccc(F)n3)nc(NC3CCC(F)(F)CC3)n2)CC1` [NSSy6886], the “SC100 (μM)” value is listed as “+ (+ means >1 uM)”.

In the case of `Cc1ccn(-c2cc(C3CCN(C)CC3)cc(NC3CCC(F)(F)CC3)n2)n1` [NSSy6888], the “SC100 (μM)” value is “+++ (+++ means <200 nM)”.

On to `COc1cc(NC2CCC(F)(F)CC2)nc(-c2cccc(C)n2)n1` [NSSy6889], for which the “SC100 (μM)” value is recorded as “+ (+ means >1 uM)”.

With `Cc1ccn(-c2cc(COC(N)=O)cc(NC3CCC(F)(F)CC3)n2)n1` [NSSy6891, (2-((4,4-difluorocyclohexyl)amino)-6-(3-methyl-1H-pyrazol-1-yl)pyridin-4-yl)methyl carbamate], the “SC100 (μM)” value is “++ (++ means 200 nM-1000 nM)”.

As to `Cc1ccn(-c2cc(C3CCNCC3)cc(NC3CCC(F)(F)CC3)n2)n1` [NSSy6897, N-(4,4-difluorocyclohexyl)-6-(3-methyl-1H-pyrazol-1-yl)-4-(piperidin-4-yl)pyridin-2-amine], the “SC100 (μM)” value was “++ (++ means 200 nM-1000 nM)”.

Turning to `CC(=O)N1CCN(c2cc(-n3ccc(C4CC4)n3)nc(NC3CCC(F)(F)CC3)n2)CC1` [NSSy6909, 1-(4-(6-(3-cyclopropyl-1H-pyrazol-1-yl)-2-((4,4-difluorocyclohexyl)amino)pyrimidin-4-yl)piperazin-1-yl)ethan-1-one], the “SC100 (μM)” value is recorded as “++ (++ means 200 nM-1000 nM)”.

With `CC(=O)N1CCC(c2cc(NC3CCC(F)(F)CC3)nc(-n3ccc(C)n3)c2)CC1` [NSSy6910], the “SC100 (μM)” value is reported as “+++ (+++ means <200 nM)”.

Consider `Cc1ccn(-c2cc(OC3CCS(=O)(=O)CC3)nc(NC3CCC(F)(F)CC3)n2)n1` [NSSy6913], for which the “SC100 (μM)” value is reported as “++ (++ means 200 nM-1000 nM)”.

As to `CC(=O)N1CCC(Oc2cc(-n3ccc(C)n3)nc(NC3CCC(F)(F)CC3)n2)CC1` [NSSy6914], the “SC100 (μM)” value is listed as “+++ (+++ means <200 nM)”.

For `CC(=O)N1CCN(c2cc(-n3ccc(CF)n3)nc(NC3CCC(F)(F)CC3)n2)CC1` [NSSy6917], the “SC100 (μM)” value is “++ (++ means 200 nM-1000 nM)”.

Consider `COC(=O)N1CCN(c2cc(-n3ccc(C)n3)nc(NC3CCC(F)(F)CC3)n2)CC1` [NSSy6924, methyl 4-(2-((4,4-difluorocyclohexyl)amino)-6-(3-methyl-1H-pyrazol-1-yl)pyrimidin-4-yl)piperazine-1-carboxylate], for which the “SC100 (μM)” value is “++ (++ means 200 nM-1000 nM)”.

In the case of `CC(=O)N1CCN(c2cc(-n3ccc(C(F)F)n3)nc(NC3CCC(F)(F)CC3)n2)CC1` [NSSy6930, 1-(4-(2-((4,4-difluorocyclohexyl)amino)-6-(3-(difluoromethyl)-1H-pyrazol-1-yl)pyrimidin-4-yl)piperazin-1-yl)ethan-1-one], the “SC100 (μM)” value was “++ (++ means 200 nM-1000 nM)”.

Turning to `CC(=O)N1CCN(c2cc(-n3ccc(CO)n3)nc(NC3CCC(F)(F)CC3)n2)CC1` [NSSy6931, 1-(4-(2-((4,4-difluorocyclohexyl)amino)-6-(3-(hydroxymethyl)-1H-pyrazol-1-yl)pyrimidin-4-yl)piperazin-1-yl)ethan-1-one], the “SC100 (μM)” value was “+ (+ means >1 uM)”.

On to `Cc1cc(NC2CCC(F)(F)CC2)nc(-n2ccc(C3CC3)n2)n1` [NSSy6935], for which the “SC100 (μM)” value is “++ (++ means 200 nM-1000 nM)”.

Take `COc1ccn(-c2cc(N3CCN(C(C)=O)CC3)nc(NC3CCC(F)(F)CC3)n2)n1` [NSSy6936]: the “SC100 (μM)” value is “+ (+ means >1 uM)”.

As to `FC1(F)CCC(Nc2ccnc(-n3ccc(C4CC4)n3)n2)CC1` [NSSy6941, 2-(3-cyclopropyl-1H-pyrazol-1-yl)-N-(4,4-difluorocyclohexyl)pyrimidin-4-amine], the “SC100 (μM)” value is given as “+ (+ means >1 uM)”.

As for `FC1(F)CCC(Nc2nccc(-n3ccc(C4CC4)n3)n2)CC1` [NSSy6945, 4-(3-cyclopropyl-1H-pyrazol-1-yl)-N-(4,4-difluorocyclohexyl)pyrimidin-2-amine], the “SC100 (μM)” value is “++ (++ means 200 nM-1000 nM)”.

The values are drawn from patent publication US10774064B2 (Cadent Therapeutics, Inc., priority 2016, dated 2020).
